# In US20060069132A1, “Azolecarboxamide herbicides” (priority 2004, published 2006):
# Legend:
# woolly cupgrass = experiment: Test C pre-/postemergence herbicide test; type: in vivo, Eriochloa villosa
# Outline: (§1)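 Visual ratings on a 0–100 scale (100 = complete control) made versus untreated controls after 12 to 14 greenhouse days. Test chemicals, formulated in surfactant-containing non-phytotoxic solvent, applied preemergence to planted seeds or postemergence to 1- to 4-leaf plants (2 to 18 cm).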
# johnsongrass = experiment: Test C pre-/postemergence herbicide test; type: in vivo, Sorghum halepense
# Outline: as §1
# lambsquarters = experiment: Test C pre-/postemergence herbicide test; type: in vivo, Chenopodium album
# Outline: as §1
# yellow nutsedge = experiment: Test C pre-/postemergence herbicide test; type: in vivo, Cyperus esculentus
# Outline: as §1
# barnyardgrass = experiment: Test C flooded paddy test; type: in vivo, Echinochloa crus-galli
# Outline: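 Injury scored visually against controls on a 0 (no effect) to 100 (complete control) scale, 12 to 14 days after treatment in greenhouse. Flooded paddy plants treated at 2-leaf stage; postemergence plants at 1- to 4-leaf stage, 2 to 18 cm tall.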
# [1] = 62 g ai/ha, preemergence, scale 0 to 100
# [2] = 250 g ai/ha, scale 0-100, preemergence
# [3] = 500 g ai/ha, scale 0 to 100 (0 no effect, 100 complete control), visual, 12 to 14 days, preemergence
compound,measurement,setting,value
CCC1=NN(C(C)(C)C)CC1C(=O)Nc1cc(C(=O)N2CC=CC2)ccc1F (racemic) [Compound 340],"Plant response rating, Cupgrass, Woolly",woolly cupgrass; [1],0
same,"Plant response rating (0 = no effect, 100 = complete control), Cupgrass, Woolly","woolly cupgrass; 125 g ai/ha, preemergence",20
same,"Plant response rating, Cupgrass, Woolly",woolly cupgrass; [2],45
same,"Plant response rating, Cupgrass, Woolly",woolly cupgrass; [3],75
same,"Plant response rating, Johnsongrass",johnsongrass; [1],15
same,"Plant response rating (0 = no effect, 100 = complete control), Johnsongrass","johnsongrass; 125 g ai/ha, preemergence",50
same,"Plant response rating, Johnsongrass",johnsongrass; [2],50
same,"Plant response rating, Johnsongrass",johnsongrass; [3],90
same,"Plant response rating, Lambsquarters",lambsquarters; [1],70
same,"Plant response rating (0 = no effect, 100 = complete control), Lambsquarters","lambsquarters; 125 g ai/ha, preemergence",80
same,"Plant response rating, Lambsquarters",lambsquarters; [2],100
same,"Plant response rating, Lambsquarters",lambsquarters; [3],100
same,"Plant response rating, Nutsedge, Yellow",yellow nutsedge; [1],0
same,"Plant response rating (0 = no effect, 100 = complete control), Nutsedge, Yellow","yellow nutsedge; 125 g ai/ha, preemergence",0
same,"Plant response rating, Nutsedge, Yellow",yellow nutsedge; [2],0
same,"Plant response rating, Nutsedge, Yellow",yellow nutsedge; [3],60
same,Barnyardgrass plant response rating,"barnyardgrass; 62 g ai/ha, scale 0 to 100 (0 no effect, 100 complete control)",20
same,Barnyardgrass plant response rating,"barnyardgrass; 125 g ai/ha, scale 0 to 100 (0 no effect, 100 complete control)",50
same,Barnyardgrass plant response rating,"barnyardgrass; 250 g ai/ha, scale of 0 to 100, 0 is no effect, 100 is complete control",60
same,"Plant response rating, Barnyardgrass","barnyardgrass; 500 g ai/ha, visual rating after 12 to 14 days, scale 0 to 100 (0 no effect, 100 complete control)",70
"CCNC(=O)c1ccc(F)c(NC(=O)C2CN(C(C)(C)C)N=C2CC)c1 (stereo not shown) [Compound 336, 1-(1,1-dimethylethyl)-3-ethyl-N-[5-[(ethylamino)carbonyl]-2-fluorophenyl]-4,5-dihydro-1H-pyrazole-4-carboxamide]",pest or weed control at 62 g/ha,"woolly cupgrass; Eriochloa villosa, pre-emergence, 312 h, 62 g ai/ha, preemergence, scale 0 to 100, read-out: Plant response rating, Cupgrass, Woolly",5%
same,pest or weed control at 125 g/ha,"woolly cupgrass; Eriochloa villosa, pre-emergence, 312 h, 125 g ai/ha, scale 0 (no effect) to 100 (complete control), visual, 12 to 14 days, read-out: Plant response rating, Cupgrass, Woolly",10%
same,pest or weed control at 250 g/ha,"woolly cupgrass; Eriochloa villosa, pre-emergence, 312 h, 250 g ai/ha, scale 0-100, read-out: Plant response rating, Cupgrass, Woolly",60%
same,pest or weed control at 500 g/ha,"woolly cupgrass; Eriochloa villosa, pre-emergence, 312 h, 500 g ai/ha, scale 0 to 100 (0 no effect, 100 complete control), visual, 12 to 14 days, read-out: Plant response rating, Cupgrass, Woolly",85%
same,pest or weed control at 62 g/ha,"johnsongrass; Sorghum halepense, pre-emergence, 62 g ai/ha, preemergence, scale 0 to 100, read-out: Plant response rating, Johnsongrass",80%
same,pest or weed control at 125 g/ha,"johnsongrass; Sorghum halepense, pre-emergence, 125 g ai/ha, scale 0 (no effect) to 100 (complete control), visual, 12 to 14 days, read-out: Plant response rating, Johnsongrass",95%
same,pest or weed control at 250 g/ha,"johnsongrass; Sorghum halepense, pre-emergence, 250 g ai/ha, scale 0-100, read-out: Plant response rating, Johnsongrass",100%
same,pest or weed control at 500 g/ha,"johnsongrass; Sorghum halepense, pre-emergence, 500 g ai/ha, scale 0 to 100 (0 no effect, 100 complete control), visual, 12 to 14 days, read-out: Plant response rating, Johnsongrass",100%
same,pest or weed control at 62 g/ha,"lambsquarters; Chenopodium album, pre-emergence, 62 g ai/ha, preemergence, scale 0 to 100, read-out: Plant response rating, Lambsquarters",100%
same,pest or weed control at 125 g/ha,"lambsquarters; Chenopodium album, pre-emergence, 125 g ai/ha, scale 0 (no effect) to 100 (complete control), visual, 12 to 14 days, read-out: Plant response rating, Lambsquarters",100%
same,pest or weed control at 250 g/ha,"lambsquarters; Chenopodium album, pre-emergence, 250 g ai/ha, scale 0-100, read-out: Plant response rating, Lambsquarters",100%
same,pest or weed control at 500 g/ha,"lambsquarters; Chenopodium album, pre-emergence, 500 g ai/ha, scale 0 to 100 (0 no effect, 100 complete control), visual, 12 to 14 days, read-out: Plant response rating, Lambsquarters",100%
same,pest or weed control at 62 g/ha,"yellow nutsedge; Cyperus, pre-emergence, 62 g ai/ha, preemergence, scale 0 to 100, read-out: Plant response rating, Nutsedge, Yellow",0%
same,pest or weed control at 125 g/ha,"yellow nutsedge; Cyperus, pre-emergence, 125 g ai/ha, scale 0 (no effect) to 100 (complete control), visual, 12 to 14 days, read-out: Plant response rating, Nutsedge, Yellow",5%
same,pest or weed control at 250 g/ha,"yellow nutsedge; Cyperus, pre-emergence, 250 g ai/ha, scale 0-100, read-out: Plant response rating, Nutsedge, Yellow",20%
same,pest or weed control at 500 g/ha,"yellow nutsedge; Cyperus, pre-emergence, 500 g ai/ha, scale 0 to 100 (0 no effect, 100 complete control), visual, 12 to 14 days, read-out: Plant response rating, Nutsedge, Yellow",60%
same,pest or weed control at 62 g/ha,"barnyardgrass; Echinochloa crus-galli, 62 g ai/ha, scale 0 to 100 (0 no effect, 100 complete control), read-out: Barnyardgrass plant response rating",0%
same,pest or weed control at 125 g/ha,"barnyardgrass; Echinochloa crus-galli, 125 g ai/ha, scale 0 to 100 (0 no effect, 100 complete control), read-out: Barnyardgrass plant response rating",0%
same,pest or weed control at 250 g/ha,"barnyardgrass; Echinochloa crus-galli, 250 g ai/ha, scale of 0 to 100, 0 is no effect, 100 is complete control, read-out: Barnyardgrass plant response rating",60%
same,pest or weed control at 500 g/ha,"barnyardgrass; Echinochloa crus-galli, 500 g ai/ha, visual rating after 12 to 14 days, scale 0 to 100 (0 no effect, 100 complete control), read-out: Plant response rating, Barnyardgrass",80%
